This assay concerns soybean seeds (Variety: Halosoy). In words: Test of Yield Increasing Effect on Soybeans (seed drenching). The format is in vivo. The following applies: seeds drenched 12 hours; for Productive grain increasing index: average number of productive grains per plant in non-treated section = 100%; for Yield increasing index per plant: harvest 110 days after sowing, yield (g) in non-treated section = 100%; for One grain weight: weight per selected bean after threshing and drying, non-treated 0.22 g.

On to `CCC1(C(=O)NC(C)c2ccc(Cl)cc2)C(C)C1(Cl)Cl` [Carpropamid, N-(R)-[1-(4-chloro-phenyl)-ethyl]-2,2-dichloro-1-ethyl-3t-methyl-1r-cyclopropanecarboxamide], for which the “Productive grain increasing index” value (1 ppm) was 127.1%, the “Productive grain increasing index” value (10 ppm) turned out to be 163.5%, the “Productive grain increasing index” value (100 ppm) was found to be 163.4% and the “Productive grain increasing index” value (1000 ppm) is reported as 126.8%. For the same compound, the “Yield increasing index per plant” value runs as follows: (1 ppm) 131.1%; (10 ppm) 173.1%; (100 ppm) 169.1%; (1000 ppm) 132.2%. Moreover, the One grain weight is recorded as 0.23 g (1 ppm), 0.23 g (10 ppm), 0.23 g (100 ppm) and 0.23 g (1000 ppm).

For the origin of these results see patent publication US20030040438A1, “Method for increasing the yield of beans” (priority 2000, published 2003).
